We go through 12 compounds from patent US11111245B2, “Derivatives of N-cycloalkyl/heterocycloalkyl-4-(imidazo[1,2-a]pyridine)pyrimidin-2-amine as therapeutic agents” (Aucentra Therapeutics Pty Ltd, priority 2017, dated 2021).

Broadly, the GI50 is the concentration at which growth is held to half of that of the control. Read a low GI50 as more potent growth inhibition. As usually defined, the Ki is a dissociation constant, usually derived from enzyme kinetics or from competition with a known ligand.

For assay [1], the system named is leukemia cell lines. As to the kind of experiment: Resazurin cell viability assay on leukemia cell lines (72 h growth inhibition, GI50). The format is cell-based. The conditions noted are these: Homo sapiens, MV4-11 cells. The gist of the method:
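MTT assay for solid tumour lines and resazurin assay for leukaemia lines, run by reported methods. GI50, the concentration giving 50% growth inhibition, was obtained by non-linear regression.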

In assay [2] the target is CDK6/D3 (Homo sapiens, UniProt Q00534). The assay can be described thus: ADP Glo Kinase assay CDK6/D3. The format is biochemical. The conditions noted are these: CDK6D3; for remaining activity at 10 µM: compound at 10 μM, read-out: residual activity (%) at 10 μM CDK6D3; for Ki: read-out: CDK inhibition, Ki (μM) CDK6D3. The gist of the method: (§1)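 In-house ADP-Glo assay: CDK4/D1 or CDK6/D3 with RB-CTF substrate in […] Tris pH 7.5, 20 mM MgCl2, 0.4 mM DTT, 0.1 mg/ml BSA; ATP-started, 40 min at 37° C.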
Sequence of CDK6/D3 (Q00534 whole entry): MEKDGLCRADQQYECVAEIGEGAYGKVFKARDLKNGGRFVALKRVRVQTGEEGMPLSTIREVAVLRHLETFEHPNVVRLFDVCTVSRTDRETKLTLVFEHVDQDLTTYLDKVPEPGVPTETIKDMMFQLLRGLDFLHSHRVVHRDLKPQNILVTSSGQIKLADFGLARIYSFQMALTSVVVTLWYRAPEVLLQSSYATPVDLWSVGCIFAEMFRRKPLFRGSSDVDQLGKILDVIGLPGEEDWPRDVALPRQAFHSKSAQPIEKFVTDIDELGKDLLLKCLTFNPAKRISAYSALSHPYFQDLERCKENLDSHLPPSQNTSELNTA
Sequence of CDK6/D3 (P30281 whole entry partner): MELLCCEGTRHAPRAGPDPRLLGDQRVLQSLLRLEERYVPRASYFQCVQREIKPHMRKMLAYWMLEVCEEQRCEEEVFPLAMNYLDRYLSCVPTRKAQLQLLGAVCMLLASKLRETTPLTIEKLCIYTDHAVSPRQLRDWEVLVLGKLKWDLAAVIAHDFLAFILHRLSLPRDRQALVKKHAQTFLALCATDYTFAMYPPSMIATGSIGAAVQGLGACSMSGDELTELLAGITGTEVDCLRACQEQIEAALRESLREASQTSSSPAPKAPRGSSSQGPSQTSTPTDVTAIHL
(ADP-Glo turns the ADP formed in a reaction into a luminescent signal.)

The target in assay [3] is CDK9/T1 (Homo sapiens, UniProt P50750). The assay can be described thus: ADP Glo Kinase assay CDK9/T1. The assay is classed as biochemical. The conditions noted are these: CDK9T1; read-out: CDK inhibition, Ki (μM) CDK9T1. The gist of the method:
(§2)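 Other CDKs and further kinases were profiled externally by radiometric assay. In-house ADP Glo assays covered CDK4/D1 and CDK6/D3 (RB-CTF substrate, pH 7.5 Tris buffer with MgCl2, DTT, BSA) and CDK9/T1 (RBER-IRStide substrate), 40 min at 37° C.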

Assay [4] has as its target T1, CDKs and other kinases (Homo sapiens, UniProt P24941).
T1 construct: other: CDK2A; residual activity (%) at 10 μM CDK2A; compound at 10 μM
The assay can be described thus: Radiometric kinase assay (Eurofins Pharma Discovery or Reaction Biology Corporation Kinase Profiler). The assay is classed as biochemical. The conditions noted are these: CDK2A; for remaining activity at 10 µM: compound at 10 μM, read-out: residual activity (%) at 10 μM CDK2A; for Ki: read-out: CDK inhibition, Ki (μM) CDK2A. In outline:
as §2

The target in assay [5] is T2, CDKs and other kinases (Homo sapiens, UniProt P50613).
T2 construct: other: CDK7H; residual activity (%) at 10 μM CDK7H; compound at 10 μM
T2 sequence (P50613 whole entry): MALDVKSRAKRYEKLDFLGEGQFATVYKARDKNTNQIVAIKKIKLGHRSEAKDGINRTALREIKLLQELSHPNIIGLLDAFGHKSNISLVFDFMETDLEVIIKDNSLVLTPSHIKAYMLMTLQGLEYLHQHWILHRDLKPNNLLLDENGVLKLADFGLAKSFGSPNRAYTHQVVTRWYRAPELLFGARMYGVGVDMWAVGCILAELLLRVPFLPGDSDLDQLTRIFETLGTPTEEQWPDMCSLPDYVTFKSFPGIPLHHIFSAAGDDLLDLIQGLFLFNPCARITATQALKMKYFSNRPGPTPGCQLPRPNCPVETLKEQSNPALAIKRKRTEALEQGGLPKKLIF
Described as above. The note with it: CDK7H; for remaining activity at 10 µM: compound at 10 μM, read-out: residual activity (%) at 10 μM CDK7H; for Ki: read-out: CDK inhibition, Ki (μM) CDK7H. The assay is classed as biochemical. The gist of the method:
as §2

Assay [6] concerns the target T3, CDKs and other kinases (Homo sapiens, UniProt P06493).
T3 construct: other: CDK1B; residual activity (%) at 10 μM CDK1B; compound at 10 μM
The description is as above. The format is biochemical. The note with it: CDK1B; for remaining activity at 10 µM: compound at 10 μM, read-out: residual activity (%) at 10 μM CDK1B; for Ki: read-out: CDK inhibition, Ki (μM) CDK1B. In outline: as §2

Assay [7] addresses CDK4/D1 (Homo sapiens, UniProt P11802). As to the kind of experiment: ADP Glo Kinase assay CDK4/D1. The format is biochemical. The conditions noted are these: CDK4D1; for remaining activity at 10 µM: compound at 10 μM, read-out: residual activity (%) at 10 μM CDK4D1; for Ki: read-out: CDK inhibition, Ki (μM) CDK4D1. The gist of the method:
as §1

Where only a bound is given, the exact number is not on record here.

Sequence of CDK4/D1 (P11802 whole entry): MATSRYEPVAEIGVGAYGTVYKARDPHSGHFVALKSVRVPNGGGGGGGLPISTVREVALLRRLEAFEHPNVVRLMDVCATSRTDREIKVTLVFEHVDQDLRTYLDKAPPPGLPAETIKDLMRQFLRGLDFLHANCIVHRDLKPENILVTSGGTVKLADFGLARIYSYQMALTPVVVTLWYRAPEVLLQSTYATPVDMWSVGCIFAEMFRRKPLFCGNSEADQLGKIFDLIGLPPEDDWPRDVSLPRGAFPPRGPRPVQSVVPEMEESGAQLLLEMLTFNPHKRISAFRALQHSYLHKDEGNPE
Sequence of CDK4/D1 (P24385 whole entry partner): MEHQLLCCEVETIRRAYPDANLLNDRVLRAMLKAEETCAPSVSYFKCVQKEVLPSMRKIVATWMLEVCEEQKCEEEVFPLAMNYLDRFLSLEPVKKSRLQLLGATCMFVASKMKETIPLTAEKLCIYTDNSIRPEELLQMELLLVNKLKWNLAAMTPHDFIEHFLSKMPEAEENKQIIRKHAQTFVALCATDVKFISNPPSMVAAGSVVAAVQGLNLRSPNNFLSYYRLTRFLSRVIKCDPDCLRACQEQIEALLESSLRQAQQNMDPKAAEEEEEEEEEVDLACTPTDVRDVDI
Sequence of CDK9/T1 (P50750 whole entry): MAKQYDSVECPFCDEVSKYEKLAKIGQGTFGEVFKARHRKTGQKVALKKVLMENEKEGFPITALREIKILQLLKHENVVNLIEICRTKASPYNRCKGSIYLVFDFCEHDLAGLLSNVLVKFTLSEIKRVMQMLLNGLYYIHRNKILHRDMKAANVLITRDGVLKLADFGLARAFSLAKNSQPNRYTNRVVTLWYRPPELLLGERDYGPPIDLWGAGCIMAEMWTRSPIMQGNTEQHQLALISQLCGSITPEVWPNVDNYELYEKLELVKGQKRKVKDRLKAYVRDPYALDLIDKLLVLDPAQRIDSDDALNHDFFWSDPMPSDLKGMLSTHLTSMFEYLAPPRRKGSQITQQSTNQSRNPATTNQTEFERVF
Sequence of CDK9/T1 (O60563 whole entry partner): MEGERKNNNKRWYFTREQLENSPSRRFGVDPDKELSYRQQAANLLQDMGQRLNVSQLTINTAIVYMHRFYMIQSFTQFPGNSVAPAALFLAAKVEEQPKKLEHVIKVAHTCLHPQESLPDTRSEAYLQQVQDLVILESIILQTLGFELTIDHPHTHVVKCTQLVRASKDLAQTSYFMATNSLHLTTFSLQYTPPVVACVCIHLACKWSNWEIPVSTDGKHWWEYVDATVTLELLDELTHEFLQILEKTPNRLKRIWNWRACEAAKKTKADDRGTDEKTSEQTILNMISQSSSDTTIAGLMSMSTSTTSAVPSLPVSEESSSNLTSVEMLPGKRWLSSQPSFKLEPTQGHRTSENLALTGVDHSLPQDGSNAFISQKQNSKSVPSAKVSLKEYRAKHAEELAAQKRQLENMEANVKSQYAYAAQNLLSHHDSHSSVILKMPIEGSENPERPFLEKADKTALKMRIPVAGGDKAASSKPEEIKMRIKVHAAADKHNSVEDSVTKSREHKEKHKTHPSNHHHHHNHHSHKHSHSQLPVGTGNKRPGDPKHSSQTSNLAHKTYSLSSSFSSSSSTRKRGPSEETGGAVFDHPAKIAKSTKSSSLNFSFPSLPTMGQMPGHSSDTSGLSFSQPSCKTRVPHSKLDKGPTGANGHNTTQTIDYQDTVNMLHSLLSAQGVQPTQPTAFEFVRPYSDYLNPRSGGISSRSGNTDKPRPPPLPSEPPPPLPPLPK
T3 sequence (P06493 whole entry): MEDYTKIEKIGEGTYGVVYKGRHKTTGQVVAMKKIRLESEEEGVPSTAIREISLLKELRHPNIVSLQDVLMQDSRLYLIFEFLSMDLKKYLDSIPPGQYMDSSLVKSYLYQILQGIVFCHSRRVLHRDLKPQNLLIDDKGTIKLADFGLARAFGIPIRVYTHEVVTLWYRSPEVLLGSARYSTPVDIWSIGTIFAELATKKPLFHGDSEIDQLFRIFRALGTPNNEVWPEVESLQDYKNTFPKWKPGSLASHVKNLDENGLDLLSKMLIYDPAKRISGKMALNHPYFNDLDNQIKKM

In the case of `Cc1cnc(N[C@H]2CC[C@@H](N)CC2)nc1-c1cnc2ccc(Nc3cccnc3)cn12` [Compound 92, (1s,4s)-N^1-(5-Methyl-4-(6-(pyridin-3-ylamino)imidazo [1,2-a]pyridin-3-yl)pyrimidin-2-yl)cyclohexane-1,4-diamine], the GI50 in assay [1] came to 0.179 ± 0.061 µM. Also, the remaining activity at 10 µM came out at 58% in assay [2]; 27% in assay [4]; 27% in assay [5]; 22% in assay [6]; 37% in assay [7]. In addition, in assay [3], the Ki worked out at 0.089 µM.
On to `Cc1cnc(N[C@H]2CC[C@@H](N)CC2)nc1-c1cnc2ccc(Nc3cncnc3)cn12` [Compound 93, (1s,4s)-N^1-(5-Methyl-4-(6-(pyrimidin-5-ylamino)imidazo [1,2-a]pyridin-3-yl)pyrimidin-2-yl)cyclohexane-1,4-diamine], for which, in assay [1], the GI50 came out at 0.336 ± 0.082 µM. Also, the remaining activity at 10 µM in assay [2] was found to be 69%; in assay [4], 31%; in assay [5], 49%; in assay [6], 35%; in assay [7] it was 28%. Besides, the Ki in assay [3] is 0.071 µM.
Compound `Cc1cnc(NC2CCCC(N)C2)nc1-c1cnc2ccc(-c3ccccc3)cn12` (stereo not drawn) [Compound 94, N^1-(5-Methyl-4-(6-phenylimidazo[1,2-a]pyridin-3-yl)pyrimidin-2-yl)cyclohexane-1,3-diamine] yielded a GI50 in assay [1] of 0.748 ± 0.063 µM. For the same compound, the remaining activity at 10 µM in assay [2] stood at 45%; in assay [4], 12%; in assay [5], 10%; in assay [6], 20%; in assay [7] it was 25%. The Ki in assay [3] was determined as 0.388 µM.
Regarding `Cc1cnc(NC2CCCC(N)C2)nc1-c1cnc2ccc(Nc3cccnc3)cn12` (stereo not drawn) [Compound 95, N^1-(5-Methyl-4-(6-(pyridin-3-ylamino)imidazo[1,2-a]pyridin-3-yl)pyrimidin-2-yl)cyclohexane-1,3-diamine], it took 0.646 ± 0.129 µM to inhibit growth in assay [1] by half (GI50). Also, the remaining activity at 10 µM was 76% in assay [2]; 28% in assay [4]; 33% in assay [5]; 59% in assay [6]; 76% in assay [7]. In addition, the Ki in assay [3] stood at 0.198 µM.
`Cc1cnc(NC2CCCC(N)C2)nc1-c1cnc2ccc(Nc3cncnc3)cn12` (stereo not drawn) [Compound 96, N^1-(5-Methyl-4-(6-(pyrimidin-5-ylamino)imidazo[1,2-a]pyridin-3-yl)pyrimidin-2-yl)cyclohexane-1,3-diamine]: the GI50 in assay [1] is above 10 µM. For the same compound, the remaining activity at 10 µM in assay [2] was 90%; in assay [4], 37%; in assay [5], 63%; in assay [6] it was 63%; in assay [7], 49%. Also, the Ki in assay [3] turned out to be 0.193 µM.
`Cc1cnc(NC2CCC(N(C)C)CC2)nc1-c1cnc2ccc(-c3ccccc3)cn12` (stereo not drawn) [Compound 97, N^1,N^1-Dimethyl-N^4-(5-methyl-4-(6-phenylimidazo[1,2-^a]pyridin-3-yl)pyrimidin-2-yl)cyclohexane-1,4-diamine] had a concentration for 50% growth inhibition (GI50) in assay [1] of 0.058 ± 0.002 µM. For the same compound, the remaining activity at 10 µM in assay [2] came out at 39%; in assay [4], 32%; in assay [5], 9%; in assay [6] it was 28%; in assay [7], 54%. The Ki in assay [3] turned out to be 0.016 µM.
`Cc1cnc(NC2CCC(N(C)C)CC2)nc1-c1cnc2ccc(Nc3cccnc3)cn12` (stereo not drawn) [Compound 98, N^1,N^1-Dimethyl-N^4-(5-Methyl-4-(6-(pyridin-3-ylamino)imidazo[1,2-a]pyridin-3-yl)pyrimidin-2-yl)cyclohexane-1,4-diamine] registered a GI50 in assay [1] of 0.153 ± 0.021 µM. The Ki in assay [2] amounted to 0.53 µM; in assay [3] it was 0.004 µM; in assay [4] it was 0.31 µM; in assay [5], 1.67 µM; in assay [6] it was 1.5 µM; in assay [7], 0.78 µM.
`Cc1cnc(NC2CCC(N(C)C)CC2)nc1-c1cnc2ccc(Nc3cncnc3)cn12` (stereo not drawn) [Compound 99, N^1,N^1-dimethyl-N^4-(5-Methyl-4-(6-(pyrimidin-5-ylamino)imidazo[1,2-a]pyridin-3-yl)pyrimidin-2-yl)cyclohexane-1,4-diamine] yielded a GI50 in assay [1] of 0.265 ± 0.034 µM. In addition, the Ki in assay [2] is 0.51 µM; in assay [3], 0.006 µM; in assay [4], 0.48 µM; in assay [5], 3.1 µM; in assay [6] it was 1.66 µM; in assay [7] it was 1.16 µM.
With `Cc1cnc(N[C@]23C[C@@]4(C)C[C@](C)(C[C@](O)(C4)C2)C3)nc1-c1cnc2ccc(-c3ccccc3)cn12` [Compound 100, (1s,3R,5S,7r)-3,5-Dimethyl-7-((5-methyl-4-(6-phenylimidazo[1,2-a]pyridin-3-yl)pyrimidin-2-yl)amino)adamantan-1-ol], in assay [1], the GI50 is above 10 µM. For the same compound, the remaining activity at 10 µM in assay [2] was 84%; in assay [4], 79%; in assay [5], 98%; in assay [6], 87%; in assay [7], 96%. Besides, the Ki in assay [3] was above 5 µM.
In assay [1], `Cc1cnc(N[C@]23C[C@@]4(C)C[C@](C)(C[C@](O)(C4)C2)C3)nc1-c1cnc2ccc(Nc3cccnc3)cn12` [Compound 101, (1s,3R,5S,7r)-3,5-Dimethyl-7-((5-methyl-4-(6-(pyridin-3-ylamino)imidazo[1,2-a]pyridin-3-yl)pyrimidin-2-yl)amino)adamantan-1-ol] returned a GI50 above 10 µM. The remaining activity at 10 µM came out at 100% in assay [2]; 41% in assay [4]; 85% in assay [5]; 60% in assay [6]; 97% in assay [7]. In addition, the Ki in assay [3] was determined as 0.561 µM.
For `Cc1cnc(N[C@]23C[C@@]4(C)C[C@](C)(C[C@](O)(C4)C2)C3)nc1-c1cnc2ccc(Nc3cncnc3)cn12` [Compound 102, (1s,3R,5S,7r)-3,5-Dimethyl-7-((5-methyl-4-(6-(pyrimidin-5-ylamino)imidazo[1,2-a]pyridin-3-yl)pyrimidin-2-yl)amino)adamantan-1-ol], the GI50 in assay [1] was found to be 0.059 ± 0.019 µM. In addition, the remaining activity at 10 µM in assay [2] was 100%; in assay [4], 22%; in assay [5] it was 85%; in assay [6], 36%; in assay [7] it was 73%. In addition, in assay [3], the Ki was 0.109 µM.
Take `Cc1cnc(NC2CCOCC2)nc1-c1cnc2ccc(Nc3cccnc3)cn12` [Compound 103, 3-(5-Methyl-2-((tetrahydro-2H-pyran-4-yl)amino)pyrimidin-4-yl)-N-(pyridin-3-yl)imidazo[1,2-a]pyridin-6-amine]: the GI50 in assay [1] was above 10 µM. Also, the remaining activity at 10 µM turned out to be 45% in assay [2]; 1% in assay [4]; 40% in assay [5]; 4% in assay [6]; 30% in assay [7]. Also, in assay [3], the Ki is 0.203 µM.
